Here are results for ten compounds from US20100173943A1, “INSECTICIDAL COMPOSITIONS WITH IMPROVED ACTION” (BAYER CROPSCIENCE AG, priority 2007, published 2010).

For test [1], the system named is green peach aphid (Myzus persicae). Briefly: Myzus persicae test (MYZUPE). Particulars: pepper plants sprayed, 6 days; for pest or weed control at 4 ppm: 4 ppm a.i. alone; for pest or weed control at 20 ppm: 20 ppm a.i. alone; for pest or weed control at 0.8 ppm: 0.8 ppm a.i. alone. The format is in vivo. How it is done: Myzus persicae Test (MYZUPE)
(§1) Solvent: 7 parts by weight of dimethylformamide
(§2) Emulsifier: 2 parts by weight of alkylaryl polyglycol ether
To prepare an appropriate active ingredient formulation, 1 part by weight of active ingredient is mixed with the given amounts of solvent and emulsifier, and the concentrate is diluted with emulsifier-containing water to the desired concentration. In the case that addition of ammonium salts, penetrants, or ammonium salts and penetrants is required, they are pippetted in each case into the finished preparation solution after dilution in a concentration of 1000 ppm each.
Pepper plants (Capsicum annuum) highly infested by the green peach aphid (Myzus persicaei) are treated by spraying with the active ingredient formulation in the desired concentration.
After the desired time, the kill rate in % is determined. 100% means that all animals have been killed; 0% means that no animals have been killed.

Test [2] concerns cotton aphid (Aphis gossypii). The experiment in a line: Aphis gossypii test (APHIGO spray treatment). The format is in vivo. Conditions: cotton leaves sprayed, 6 days; for pest or weed control at 4 ppm: 4 ppm a.i. alone; for pest or weed control at 20 ppm: 20 ppm a.i. alone; for pest or weed control at 0.8 ppm: 0.8 ppm a.i. alone. The procedure:
Aphis gossypii Test (APHIGO Spray Treatment)
as §1, §2
To prepare a ready-to-use active ingredient formulation, 1 part by weight of active ingredient is mixed with the specified amounts of solvent and emulsifier and the concentrate is diluted with emulsifier-containing water to the desired concentration. In the case that addition of ammonium salts, penetrants, or ammonium salts and penetrants is required, they are pipetted in each case into the finished preparation solution after dilution in a concentration of 1000 ppm each.
Cotton leaves (Gossypium hirsutum) highly infested by the cotton aphid (Aphis gossypii) are sprayed with an active ingredient formulation with the desired concentration.
After the desired period, the kill rate in % is determined. 100% means that all aphids have been killed; 0% means that no aphids have been killed.

Where [3] appears, read: 4 ppm a.i. + AMS and RME 1000 ppm each.
Setting [4] is: 4 ppm a.i. + ammonium sulphate 1000 ppm.
Where [5] appears, read: 4 ppm a.i. + rapeseed oil methyl ester 1000 ppm.
Setting [6] is: Aphis gossypii, 144 h, read-out: Kill in % after 6 days a.i.
Where [7] appears, read: 20 ppm a.i. + AMS and RME 1000 ppm each.
The mark [8] stands for this setting: 20 ppm a.i. + ammonium sulphate 1000 ppm.
The mark [9] stands for this setting: 20 ppm a.i. + rapeseed oil methyl ester 1000 ppm.
Where [10] appears, read: Myzus persicae, 144 h, read-out: Kill in % after 6 days a.i.
Where [11] appears, read: 0.8 ppm a.i. + AMS and RME 1000 ppm each.
[12] abbreviates: 0.8 ppm a.i. + ammonium sulphate 1000 ppm.
The mark [13] stands for this setting: 0.8 ppm a.i. + rapeseed oil methyl ester 1000 ppm.
Setting [14] is: 0.16 ppm a.i. + AMS and RME 1000 ppm each.
[15] abbreviates: 0.16 ppm a.i. + ammonium sulphate 1000 ppm.
Where [16] appears, read: 0.16 ppm a.i. + rapeseed oil methyl ester 1000 ppm.

The structures appear in SMILES notation.

`C#CCN(Cc1ccc(Cl)nc1)C1=CC(=O)OC1` [Compound I-33, 4-{[(6-chloropyrid-3-yl)methyl](prop-2-yn-1-yl)amino}furan-2(5H)-one]: the “Kill in % after 6 days +AMS + RME” value came out at 95% in test [1] (100 ppm a.i. + AMS and RME 1000 ppm each); 15% in test [2] (setting [3]). In addition, the figures for the “Kill in % after 6 days +AMS” value in test [1] (100 ppm a.i. + ammonium sulphate 1000 ppm) and in test [2] (setting [4]) were 45% and 25%, respectively. In addition, the figures for the “Kill in % after 6 days +RME” value in test [1] (100 ppm a.i. + rapeseed oil methyl ester 1000 ppm) and in test [2] (setting [5]) were 95% and 65%, respectively. In addition, the pest or weed control at 100 ppm in test [1] (Myzus persicae, 144 h, 100 ppm a.i. alone, read-out: Kill in % after 6 days a.i.) is 40%. Besides, the pest or weed control at 4 ppm in test [2] (setting [6]) turned out to be 30%.
As for `C=CCN(Cc1ccc(Cl)nc1)C1=CC(=O)OC1` [Compound I-32, 4-{allyl[(6-chloropyrid-3-yl)methyl]amino}furan-2(5H)-one], the “Kill in % after 6 days +AMS + RME” value turned out to be 80% in test [1] (setting [3]), 100% in test [1] (setting [7]) and 100% in test [2] (setting [7]). Further, the “Kill in % after 6 days +AMS” value in test [1] (setting [4]) was 60%; in test [1] (setting [8]), 100%; in test [2] (setting [8]), 100%. Further, the “Kill in % after 6 days +RME” value in test [1] (setting [5]) was 70%; in test [1] (setting [9]), 98%; in test [2] (setting [9]), 100%. Also, the pest or weed control at 4 ppm in test [1] (setting [10]) amounted to 0%. The pest or weed control at 20 ppm in test [1] (setting [10]) turned out to be 15%; in test [2] (setting [6]), 0%.
Regarding `O=C1C=C(NCc2ccc(Cl)nc2)CCC1` [Compound I-37, 3-{[(6-chloropyrid-3-yl)methyl]amino}cyclohex-2-en-1-one], the “Kill in % after 6 days +AMS + RME” value in test [1] (setting [7]) is 95%; in test [2] (setting [7]), 65%. Besides, the “Kill in % after 6 days +AMS” value in test [1] (setting [8]) is recorded as 35%; in test [2] (setting [8]) it was 45%. Further, the “Kill in % after 6 days +RME” value is recorded as 90% in test [1] (setting [9]) and 40% in test [2] (setting [9]). The pest or weed control at 20 ppm in test [1] (setting [10]) was determined as 20%; in test [2] (setting [6]), 55%.
As to `CN(Cc1ccc(Cl)nc1)C1=C(F)C(=O)OC1` [Compound I-28, 4-{[(6-chloropyrid-3-yl)methyl](methyl)amino}-3-fluorofuran-2(5H)-one], the “Kill in % after 6 days +AMS + RME” value in test [1] (setting [3]) was found to be 95%; in test [2] (setting [3]) it was 80%; in test [2] (setting [7]) it was 95%. Besides, the “Kill in % after 6 days +AMS” value was determined as 15% in test [1] (setting [4]), 60% in test [2] (setting [4]) and 90% in test [2] (setting [8]). In addition, the results for the “Kill in % after 6 days +RME” value in test [1] (setting [5]), in test [2] (setting [5]) and in test [2] (setting [9]) were 90%, 75% and 95%, respectively. For the same compound, the pest or weed control at 4 ppm in test [1] (setting [10]) and in test [2] (setting [6]) was 50% in each case. Besides, in test [2] (setting [6]), the pest or weed control at 20 ppm turned out to be 55%.
With `CN(Cc1ccc(Cl)nc1)C1=CC(=O)CC1` [Compound I-18, 3-{[(6-chloropyrid-3-yl)methyl](methyl)amino}cyclopent-2-en-1-one], the figures for the “Kill in % after 6 days +AMS + RME” value in test [1] (setting [11]), in test [1] (setting [3]) and in test [2] (setting [11]) were 70%, 100% and 90%, respectively. For the same compound, the figures for the “Kill in % after 6 days +AMS” value in test [1] (setting [12]), in test [1] (setting [4]) and in test [2] (setting [12]) were 0%, 95% and 50%, respectively. Further, the “Kill in % after 6 days +RME” value in test [1] (setting [13]) amounted to 98%; in test [1] (setting [5]) it was 100%; in test [2] (setting [13]), 75%. Further, the pest or weed control at 0.8 ppm was 25% in test [1] (setting [10]) and 65% in test [2] (setting [6]). In test [1] (setting [10]), the pest or weed control at 4 ppm amounted to 80%.
Consider `CN(Cc1cnc(Cl)c(F)c1)C1=CC(=O)OC1` [Compound I-8, 4-{[(6-chloro-5-fluoropyrid-3-yl)methyl](methyl)amino}furan-2(5H)-one], for which the “Kill in % after 6 days +AMS + RME” value is given as 95% in test [1] (setting [11]) and 75% in test [2] (setting [11]). The “Kill in % after 6 days +AMS” value in test [1] (setting [12]) came out at 50%; in test [2] (setting [12]) it was 30%. In addition, the entries for the “Kill in % after 6 days +RME” value in test [1] (setting [13]) and in test [2] (setting [13]) were 95% and 60%, respectively. The figures for the pest or weed control at 0.8 ppm in test [1] (setting [10]) and in test [2] (setting [6]) were 40% and 20%, respectively.
For `CN(Cc1cnc(Br)c(F)c1)C1=CC(=O)OC1` [Compound I-11, 4-{[(6-bromo-5-fluoropyrid-3-yl)methyl](methyl)amino}furan-2(5H)-one], the “Kill in % after 6 days +AMS + RME” value in test [1] (setting [14]) was determined as 90%; in test [1] (setting [11]), 99%; in test [2] (setting [11]) it was 99%. In addition, the “Kill in % after 6 days +AMS” value in test [1] (setting [15]) was determined as 0%; in test [1] (setting [12]), 95%; in test [2] (setting [12]), 55%. For the same compound, the “Kill in % after 6 days +RME” value was 0% in test [1] (setting [16]), 99% in test [1] (setting [13]) and 95% in test [2] (setting [13]). For the same compound, the pest or weed control at 0.16 ppm in test [1] (Myzus persicae, 144 h, 0.16 ppm a.i. alone, read-out: Kill in % after 6 days a.i.) was 0%. The pest or weed control at 0.8 ppm in test [1] (setting [10]) was found to be 85%; in test [2] (setting [6]) it was 15%.
As to `O=C1C=C(N(Cc2cnc(Cl)c(Cl)c2)C2CC2)CO1` [Compound I-9, 4-{[(5,6-dichloropyrid-3-yl)methyl](cyclopropyl)amino}furan-2(5H)-one], the “Kill in % after 6 days +AMS + RME” value in test [1] (setting [3]) was 70%; in test [2] (setting [11]), 30%. Moreover, the “Kill in % after 6 days +AMS” value in test [1] (setting [4]) was 15%; in test [2] (setting [12]) it was 0%. For the same compound, the “Kill in % after 6 days +RME” value in test [1] (setting [5]) worked out at 60%; in test [2] (setting [13]) it was 15%. The pest or weed control at 4 ppm in test [1] (setting [10]) is 0%. In addition, the pest or weed control at 0.8 ppm in test [2] (setting [6]) worked out at 0%.
In the case of `O=C1C=C(N(Cc2ccc(Br)nc2)CC(F)F)CO1` [Compound I-2], the entries for the “Kill in % after 6 days +AMS + RME” value in test [1] (setting [11]) and in test [2] (setting [11]) were 30% and 15%, respectively. The figures for the “Kill in % after 6 days +AMS” value in test [1] (setting [12]) and in test [2] (setting [12]) were 50% and 98%, respectively. In addition, the “Kill in % after 6 days +RME” value in test [1] (setting [13]) is recorded as 98%; in test [2] (setting [13]), 90%. Moreover, the pest or weed control at 0.8 ppm in test [1] (setting [10]) was 0%; in test [2] (setting [6]), 15%.
For the compound `O=C1C=C(N(CCF)Cc2ccc(Cl)nc2)CO1` [Compound I-6, 4-{[(6-chloropyrid-3-yl)methyl](2-fluoroethyl)amino}furan-2(5H)-one], the results for the “Kill in % after 6 days +AMS + RME” value in test [1] (setting [3]), in test [2] (setting [14]) and in test [2] (setting [11]) were 100%, 40% and 70%, respectively. The “Kill in % after 6 days +AMS” value in test [1] (setting [4]) turned out to be 85%; in test [2] (setting [15]), 0%; in test [2] (setting [12]), 55%. Besides, the “Kill in % after 6 days +RME” value in test [1] (setting [5]) was found to be 100%; in test [2] (setting [16]), 25%; in test [2] (setting [13]), 80%. The pest or weed control at 4 ppm in test [1] (setting [10]) was found to be 60%. Further, the pest or weed control at 0.16 ppm in test [2] (Aphis gossypii, 144 h, 0.16 ppm a.i. alone, read-out: Kill in % after 6 days a.i.) was 0%. The pest or weed control at 0.8 ppm in test [2] (setting [6]) is 45%.
